Results: PMC6746701, “A phyB-PIF1-SPA1 kinase regulatory complex promotes photomorphogenesis in Arabidopsis” (Nature Communications, 2019)

Key:
phyB = biological target: T1, phyB (Arabidopsis thaliana, UniProt P14713); assay: in vitro kinase assay, autoradiogram; assay type: biochemical; conditions: PIF1 as co-substrate, 10 mM MgCl2, pH 7.5, 28 °C; labelled compound (gamma-32P)
T1 construct: full length (1172 aa), strep-tagged from Pichia pastoris GS115 or GFP fusion from Saccharomyces cerevisiae; holoprotein with phycocyanobilin; dimer
T1 sequence (P14713 1-1172): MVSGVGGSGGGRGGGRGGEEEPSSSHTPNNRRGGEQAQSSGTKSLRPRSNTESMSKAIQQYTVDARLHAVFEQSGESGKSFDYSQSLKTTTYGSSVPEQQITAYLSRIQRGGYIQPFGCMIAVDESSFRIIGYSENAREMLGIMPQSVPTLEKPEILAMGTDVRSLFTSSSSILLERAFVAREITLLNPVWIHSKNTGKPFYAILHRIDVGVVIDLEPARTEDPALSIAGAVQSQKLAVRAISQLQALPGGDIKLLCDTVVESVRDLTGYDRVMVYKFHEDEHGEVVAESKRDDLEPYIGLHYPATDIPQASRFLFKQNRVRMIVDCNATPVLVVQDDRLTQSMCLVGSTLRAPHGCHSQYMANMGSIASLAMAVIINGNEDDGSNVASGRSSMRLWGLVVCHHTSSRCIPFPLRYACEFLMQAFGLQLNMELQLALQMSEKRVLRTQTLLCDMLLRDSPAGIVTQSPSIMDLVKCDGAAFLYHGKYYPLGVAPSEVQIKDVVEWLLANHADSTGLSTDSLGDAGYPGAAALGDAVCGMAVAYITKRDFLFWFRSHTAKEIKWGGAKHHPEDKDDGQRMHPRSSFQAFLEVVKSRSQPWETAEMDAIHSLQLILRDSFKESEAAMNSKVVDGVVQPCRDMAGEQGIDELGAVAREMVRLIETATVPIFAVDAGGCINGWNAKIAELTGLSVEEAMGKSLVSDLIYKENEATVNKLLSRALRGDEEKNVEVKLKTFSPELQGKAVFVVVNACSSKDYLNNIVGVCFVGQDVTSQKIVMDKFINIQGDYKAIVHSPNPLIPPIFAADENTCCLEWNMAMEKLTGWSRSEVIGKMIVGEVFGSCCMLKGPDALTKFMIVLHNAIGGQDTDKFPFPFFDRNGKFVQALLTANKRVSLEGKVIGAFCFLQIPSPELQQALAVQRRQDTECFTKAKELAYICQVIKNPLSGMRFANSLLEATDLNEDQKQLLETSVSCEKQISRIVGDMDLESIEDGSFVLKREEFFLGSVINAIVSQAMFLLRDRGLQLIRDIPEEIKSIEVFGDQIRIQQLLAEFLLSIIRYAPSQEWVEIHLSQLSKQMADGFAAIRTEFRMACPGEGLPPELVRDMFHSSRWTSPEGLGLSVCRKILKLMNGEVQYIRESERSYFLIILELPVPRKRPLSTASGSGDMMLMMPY

full-length SPA1 = biological target: T2, full-length SPA1 (Arabidopsis thaliana, UniProt Q9SYX2, R517E); assay: in vitro kinase assay, autoradiogram; assay type: biochemical; conditions: GST-PIF1 as co-substrate, 10 mM MgCl2, pH 7.5, 28 °C; labelled compound (gamma-32P)
T2 construct: full length, strep-tagged (3x Flag also cloned), Pichia pastoris GS115, tags kept
T2 sequence (Q9SYX2 1-1029 R517E): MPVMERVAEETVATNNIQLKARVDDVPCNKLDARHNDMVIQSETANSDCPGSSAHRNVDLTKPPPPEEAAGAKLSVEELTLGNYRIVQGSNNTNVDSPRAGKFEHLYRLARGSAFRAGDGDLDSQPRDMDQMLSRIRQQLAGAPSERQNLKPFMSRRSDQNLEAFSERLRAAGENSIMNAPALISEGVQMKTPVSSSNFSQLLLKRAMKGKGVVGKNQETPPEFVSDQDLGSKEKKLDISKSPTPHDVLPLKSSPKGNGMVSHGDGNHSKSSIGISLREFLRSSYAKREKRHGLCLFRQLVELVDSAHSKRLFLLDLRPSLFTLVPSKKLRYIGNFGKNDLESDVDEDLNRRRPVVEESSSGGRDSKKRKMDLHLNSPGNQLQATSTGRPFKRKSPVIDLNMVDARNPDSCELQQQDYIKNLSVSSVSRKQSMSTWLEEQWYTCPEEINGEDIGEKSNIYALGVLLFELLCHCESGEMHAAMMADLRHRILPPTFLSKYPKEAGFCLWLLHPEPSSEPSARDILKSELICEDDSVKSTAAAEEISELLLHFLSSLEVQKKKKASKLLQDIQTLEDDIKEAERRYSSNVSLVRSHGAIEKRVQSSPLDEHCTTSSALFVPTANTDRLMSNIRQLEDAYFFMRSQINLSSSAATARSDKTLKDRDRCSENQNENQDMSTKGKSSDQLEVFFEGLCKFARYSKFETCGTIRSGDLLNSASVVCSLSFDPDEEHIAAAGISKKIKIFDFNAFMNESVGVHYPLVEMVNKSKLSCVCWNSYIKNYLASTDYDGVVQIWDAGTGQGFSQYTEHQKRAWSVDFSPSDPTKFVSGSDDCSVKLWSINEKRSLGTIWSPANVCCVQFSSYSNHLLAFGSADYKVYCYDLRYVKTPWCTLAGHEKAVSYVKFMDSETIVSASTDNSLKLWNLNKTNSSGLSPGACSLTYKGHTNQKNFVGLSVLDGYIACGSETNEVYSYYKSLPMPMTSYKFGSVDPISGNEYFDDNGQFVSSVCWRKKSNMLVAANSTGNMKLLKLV

Nc1ncnc2c1ncn2[C@@H]1O[C@H](COP(=O)(O)OP(=O)(O)OP(=O)(O)O)[C@@H](O)[C@H]1O [ATP]
in vitro kinase assay, autoradiogram (phyB): both SPA1 and phyB independently phosphorylates PIF1 in vitro
in vitro kinase assay, autoradiogram (full-length SPA1): mSPA1 showed significantly reduced PIF1 phosphorylation compared to the wild type SPA1
